# Test results: the OPERA property sets (Mansouri et al. 2018)
row,SMILES,logP
1,CC(=O)NNC(=O)Nc1ccc(C#N)cc1,0.38
2,COc1ccc(NC(=O)NNC(C)=O)cc1,0.11
3,CC(=O)NNC(=O)Nc1ccc(F)cc1,0.45
4,CC(=O)NNC(=O)Nc1ccc([N+](=O)[O-])cc1,0.77
5,CC(=O)NNC(=O)Nc1ccc(N(C)C)cc1,0.11
6,CC(=O)NNC(=O)Nc1ccc(I)cc1,1.65
7,CCOc1ccc(NC(=O)NNC(C)=O)cc1,0.51
8,CC(=O)NNC(=O)Nc1cccc(C)c1,0.75
9,CC(=O)NNC(=O)Nc1cccc(I)c1,1.71
10,CC(=O)NNC(=O)Nc1ccc(C)cc1,0.67
11,CC(=O)NNC(=O)Nc1ccc(Oc2ccccc2)cc1,2.01
12,CC(=O)NNC(=O)Nc1cccc([N+](=O)[O-])c1,0.67
13,COc1cccc(NC(=O)NNC(C)=O)c1,0.33
14,CC(=O)NNC(=O)Nc1cccc(Br)c1,1.48
15,CC(=O)NNC(=O)Nc1ccc(Cl)cc1,1.12
16,CC(=O)NNC(=O)Nc1ccc(Br)cc1,1.38
17,CC(=O)NNC(=O)Nc1cccc(F)c1,0.73
18,CC(=O)NNC(=O)Nc1cccc(Cl)c1,1.33
19,CC(=O)NNC(=O)Nc1ccc(C(C)(C)C)cc1,2.08
20,CC(=O)NNC(=O)Nc1ccccc1,0.25
21,CC(=O)NNC(=O)Nc1cccc(C(F)(F)F)c1,1.59
22,CC(=O)NNC(=O)Nc1ccc(O)cc1,-0.79
